Experimental data published in patent US7465581B2, “ANKTM1, a cold-activated TRP-like channel expressed in nociceptive neurons” (The Scripps Research Institute, priority 2002, dated 2008).
Entries after “also recorded” stand apart in the source; their conditions may differ. Each block holds one compound with its values, some of them ahead of it.

Experiments:
TRPV1 [1] = molecular target: T1, TRPV1 (Rattus norvegicus, UniProt O35433); assay: Intracellular calcium imaging (Fura-2) of TRPV1-expressing CHO cells; format: cell-based; settings: rise in intracellular calcium, 340/380 ratio, FIG. 4B
T1 construct: expressed in transfected cells; host or cells: CHO cells
Protocol: Calcium imaging experiments were performed essentially as described (Peier et al., 2002a, supra). Briefly, cells were plated on glass coverslips 24-48 hours prior to imaging experiments. Cells were washed in HEPES buffeted saline solution (2 mM Ca^2+), loaded with Fura-2 acetoxymethyl ester ([…]), 1.5 mM pluronic acid (Molecular Probes, Eugene, Oreg.) and incubated for 1 hour at room temperature in the dark. Coverslips were placed in laminar flow chamber (Warner Instrument Corp., Hamden, Conn.) and perfused with HEPES buffered saline (2 mM Ca^2+) flowing through small-diameter tubing at the inlet of the chamber. Perfusion rate was approximately 2 ml/min and was stopped and started via a solenoid switch (Warner Instrument Corp., Hamden, Conn. Perfusate temperature was controlled by a Peltier device and monitored via miniature thermocouple at the inlet of the chamber. Heated (up to 52° C.), chilled (down to 9° C., the limit of our system), and room temperature buffer was delivered through the same application tubing at the inlet of the chamber. Alternatively, in experiments where the compounds menthol (Sigma, St. Louis, Mo.]), capsaicin (Fluka, Buchs, Switzerland) and Icilin (Tocris Woodson,) were applied, cells were plated on 24-well tissue culture plates and loaded with Fura-2. Compounds were delivered with a 3 cc syringe during a period of ten seconds. […]

TRPM8 [2] = molecular target: T2, TRPM8 (Mus musculus, UniProt Q8R4D5); settings: McKemy et al., 2002; cited from earlier work
T2 construct: expressed in transfected cells; host or cells: CHO-K1/FRT cells

TRPM8 [3] = molecular target: T2, TRPM8; assay: Intracellular calcium imaging (Fura-2) of TRPM8-expressing CHO cells; format: cell-based, murine
Protocol: CHO-K1/FRT cells were stably transfected with full-length murine ANKTM1 in the pcDNA5/FRT vector using Lipofectamine (Invitrogen) according to the manufacturer's protocol. Transfected cells were selected in growth medium containing Hygromycin (200 μg/mL). Northern blot analysis identified stable clones expressing ANKTM1 mRNA. The generation of stable murine TRPM8-expressing CHO-K1/FRT cells has been previously described (Peier et al, 2002). ANKTM1-expressing stable CHO-K1/FRT lines appeared unhealthy (membrane blebbing, cytoplasmic granulations) in culture, and after several passages, a loss of ANTKM1 expression was observed. Previous investigators have also claimed difficulty generating stable cell lines expressing human ANKTM1.
Calcium imaging experiments were performed essentially as described (Peier et al., 2002a, supra). Briefly, cells were plated on glass coverslips 24-48 hours prior to imaging experiments. […]
Images of Fura-2 loaded cells with the excitation wavelength alternating between 340 nm and 380 nm were captured with a cooled […] camera. The ratio of fluorescence intensity of the two wavelengths of groups of 30-50 cells in each experiment was analyzed using MetaFluor (Universal Imaging Corp). […] For ANKTM1 and TRPM8 threshold experiments, the threshold temperature of activation of 60-100 cells each from three replicate experiments was analyzed. […]

ANKTM1 = molecular target: T3, ANKTM1 (Mus musculus, UniProt Q8BLA8); assay: Intracellular calcium imaging (Fura-2) of ANKTM1-expressing CHO cells; format: cell-based, murine; settings: for activation of ANKTM1-expressing cells by compound: rise in intracellular calcium, 340/380 ratio, FIG. 4B
T3 construct: pcDNA5FRT/TO containing full-length murine ANKTM1; expressed in transfected cells; host or cells: tetracycline-inducible CHO-K1/FRT cells (Flp-In)
Protocol: Nevertheless, since ANKTM1 bears similarities to TRP-like channels expressed in sensory neurons, tests were conducted to determine activation of ANKTM1 by various sensory stimuli. To this end, a series of tests were conducted using full-length murine ANKTM1 stably transfected in Chinese Hamster Ovary (CHO) cells containing FRT sites (CHO-K1/FRT) under control of a tetracycline (Tet)-inducible promoter via Flp recombinase mediated recombination. To circumvent this problem, cell lines were generated in which ANKTM1 expression could be controlled. Tetracycline-inducible CHO-K1/FRT cells lines were generated by transfecting the CHO Flp-In host cell line with pcDNA6/TR according to manufacturer's instructions (Invitrogen, San Diego, Calif.) and selected in 5 μg/mL Blasticidin. Clones stably expressing the tetracycline repressor identified by blasticidin resistance were transiently transfected with a control plasmid containing the CAT gene and selected based on high levels of CAT expression after treatment with tetracycline. The gene expression vector; pcDNA5FRT/TO containing full-length murine ANKTM1 and the Flp recombinase expression plasmid pOG44 were co-transfected into the tetracycline-inducible CHO-K1/FRT cell line and selected via Hygromycin resistance (200 μg/ml). Induction of ANKTM1 was accomplished by treating CHO cells with 1-2 μg/mL tetracycline (Tet) 5-24 hours before experiments. Calcium imaging experiments were performed essentially as described (Peier et al., 2002a, supra). Briefly, cells were plated on glass coverslips 24-48 hours prior to imaging experiments. Cells were washed in HEPES buffeted saline solution (2 mM Ca^2+), loaded with Fura-2 acetoxymethyl ester ([…]), 1.5 mM pluronic acid (Molecular Probes, Eugene, Oreg.) and incubated for 1 hour at room temperature in the dark. Coverslips were placed in laminar flow chamber (Warner Instrument Corp., Hamden, Conn.) and perfused with HEPES buffered saline (2 mM Ca^2+) flowing through small-diameter tubing at the inlet of the chamber. Perfusion rate was approximately 2 ml/min and was stopped and started via a solenoid switch (Warner Instrument Corp., Hamden, Conn. Perfusate temperature was controlled by a Peltier device and monitored via miniature thermocouple at the inlet of the chamber. Heated (up to 52° C.), chilled (down to 9° C., the limit of our system), and room temperature buffer was delivered through the same application tubing at the inlet of the chamber. Alternatively, in experiments where the compounds menthol (Sigma, St. Louis, Mo.]), capsaicin (Fluka, Buchs, Switzerland) and Icilin (Tocris Woodson,) were applied, cells were plated on 24-well tissue culture plates and loaded with Fura-2. Compounds were delivered with a 3 cc syringe during a period of ten seconds. Images of Fura-2 loaded cells with the excitation wavelength alternating between 340 nm and 380 nm were captured with a cooled […] camera. The ratio of fluorescence intensity of the two wavelengths of groups of 30-50 cells in each experiment was analyzed using MetaFluor (Universal Imaging Corp). Experiments were performed in triplicate. Unless otherwise indicated, graphs represent averaged responses of 20-40 cells from representative experiments. For direct comparison of results from different experiments, values were normalized to baseline of the ratio 340/380. For ANKTM1 and TRPM8 threshold experiments, the threshold temperature of activation of 60-100 cells each from three replicate experiments was analyzed. Threshold of activation was defined as 20% above baseline. Hanks Balanced Salt Solution (HBSS) and HEPES buffers were obtained from GibcoBRL.

TRPV1 [4] = molecular target: T1, TRPV1; settings: general statement; cited from earlier work

T2 sequence (Q8R4D5 whole entry): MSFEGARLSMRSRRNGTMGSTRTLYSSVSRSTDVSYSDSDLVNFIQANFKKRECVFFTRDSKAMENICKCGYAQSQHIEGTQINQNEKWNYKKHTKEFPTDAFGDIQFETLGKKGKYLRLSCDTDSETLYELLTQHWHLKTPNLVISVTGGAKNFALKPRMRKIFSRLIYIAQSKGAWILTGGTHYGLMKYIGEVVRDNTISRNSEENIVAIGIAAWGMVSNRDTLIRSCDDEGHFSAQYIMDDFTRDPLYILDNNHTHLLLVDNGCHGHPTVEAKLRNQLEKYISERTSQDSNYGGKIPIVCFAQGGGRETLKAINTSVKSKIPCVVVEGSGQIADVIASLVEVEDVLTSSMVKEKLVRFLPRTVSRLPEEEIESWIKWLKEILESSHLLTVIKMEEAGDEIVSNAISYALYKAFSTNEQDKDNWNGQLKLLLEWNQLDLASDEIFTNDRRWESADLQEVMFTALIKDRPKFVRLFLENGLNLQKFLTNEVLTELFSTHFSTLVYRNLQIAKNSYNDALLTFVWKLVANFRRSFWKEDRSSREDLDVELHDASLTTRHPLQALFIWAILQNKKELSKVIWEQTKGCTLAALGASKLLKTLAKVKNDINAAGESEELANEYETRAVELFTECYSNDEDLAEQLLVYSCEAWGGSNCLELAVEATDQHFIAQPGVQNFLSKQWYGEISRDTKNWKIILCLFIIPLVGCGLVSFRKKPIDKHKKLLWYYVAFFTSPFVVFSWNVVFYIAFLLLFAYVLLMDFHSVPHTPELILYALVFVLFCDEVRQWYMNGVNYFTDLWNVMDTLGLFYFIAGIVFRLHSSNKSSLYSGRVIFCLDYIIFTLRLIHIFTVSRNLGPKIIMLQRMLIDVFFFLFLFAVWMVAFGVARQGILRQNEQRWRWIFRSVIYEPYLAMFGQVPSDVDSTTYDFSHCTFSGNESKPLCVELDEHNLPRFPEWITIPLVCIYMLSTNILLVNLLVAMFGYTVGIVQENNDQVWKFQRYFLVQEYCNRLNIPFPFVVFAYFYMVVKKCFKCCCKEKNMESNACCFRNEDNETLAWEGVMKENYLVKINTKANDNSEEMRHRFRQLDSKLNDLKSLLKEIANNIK
T3 sequence (Q8BLA8 whole entry): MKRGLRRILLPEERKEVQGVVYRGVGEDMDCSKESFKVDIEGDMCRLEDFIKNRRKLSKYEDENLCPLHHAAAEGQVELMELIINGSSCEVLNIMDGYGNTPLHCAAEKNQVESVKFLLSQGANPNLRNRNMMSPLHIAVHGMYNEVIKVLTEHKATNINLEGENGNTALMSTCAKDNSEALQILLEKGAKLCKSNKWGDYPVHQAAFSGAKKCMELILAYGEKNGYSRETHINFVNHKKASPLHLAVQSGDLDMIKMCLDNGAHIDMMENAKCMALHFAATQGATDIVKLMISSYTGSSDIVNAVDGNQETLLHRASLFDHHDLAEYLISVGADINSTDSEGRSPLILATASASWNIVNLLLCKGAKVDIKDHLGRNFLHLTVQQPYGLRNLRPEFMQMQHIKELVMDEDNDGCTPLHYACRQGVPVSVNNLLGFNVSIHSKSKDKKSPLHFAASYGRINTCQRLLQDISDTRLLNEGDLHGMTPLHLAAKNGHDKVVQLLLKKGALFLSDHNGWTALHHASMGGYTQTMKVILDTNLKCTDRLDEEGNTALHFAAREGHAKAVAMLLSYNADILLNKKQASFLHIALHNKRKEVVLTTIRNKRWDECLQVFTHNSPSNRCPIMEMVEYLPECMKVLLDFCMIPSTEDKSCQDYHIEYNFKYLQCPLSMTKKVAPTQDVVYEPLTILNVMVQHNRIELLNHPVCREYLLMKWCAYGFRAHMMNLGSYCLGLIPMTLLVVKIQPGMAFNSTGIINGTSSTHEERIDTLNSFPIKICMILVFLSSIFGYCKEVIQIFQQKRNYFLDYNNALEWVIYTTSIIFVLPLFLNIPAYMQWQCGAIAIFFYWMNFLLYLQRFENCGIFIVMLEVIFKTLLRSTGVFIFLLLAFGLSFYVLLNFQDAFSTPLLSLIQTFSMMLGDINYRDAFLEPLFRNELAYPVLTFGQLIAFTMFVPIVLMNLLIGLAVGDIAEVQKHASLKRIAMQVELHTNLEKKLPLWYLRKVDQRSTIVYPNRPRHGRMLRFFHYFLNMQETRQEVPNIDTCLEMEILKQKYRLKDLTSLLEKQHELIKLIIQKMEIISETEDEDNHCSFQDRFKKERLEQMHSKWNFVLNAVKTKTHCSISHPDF
T1 sequence (O35433 whole entry): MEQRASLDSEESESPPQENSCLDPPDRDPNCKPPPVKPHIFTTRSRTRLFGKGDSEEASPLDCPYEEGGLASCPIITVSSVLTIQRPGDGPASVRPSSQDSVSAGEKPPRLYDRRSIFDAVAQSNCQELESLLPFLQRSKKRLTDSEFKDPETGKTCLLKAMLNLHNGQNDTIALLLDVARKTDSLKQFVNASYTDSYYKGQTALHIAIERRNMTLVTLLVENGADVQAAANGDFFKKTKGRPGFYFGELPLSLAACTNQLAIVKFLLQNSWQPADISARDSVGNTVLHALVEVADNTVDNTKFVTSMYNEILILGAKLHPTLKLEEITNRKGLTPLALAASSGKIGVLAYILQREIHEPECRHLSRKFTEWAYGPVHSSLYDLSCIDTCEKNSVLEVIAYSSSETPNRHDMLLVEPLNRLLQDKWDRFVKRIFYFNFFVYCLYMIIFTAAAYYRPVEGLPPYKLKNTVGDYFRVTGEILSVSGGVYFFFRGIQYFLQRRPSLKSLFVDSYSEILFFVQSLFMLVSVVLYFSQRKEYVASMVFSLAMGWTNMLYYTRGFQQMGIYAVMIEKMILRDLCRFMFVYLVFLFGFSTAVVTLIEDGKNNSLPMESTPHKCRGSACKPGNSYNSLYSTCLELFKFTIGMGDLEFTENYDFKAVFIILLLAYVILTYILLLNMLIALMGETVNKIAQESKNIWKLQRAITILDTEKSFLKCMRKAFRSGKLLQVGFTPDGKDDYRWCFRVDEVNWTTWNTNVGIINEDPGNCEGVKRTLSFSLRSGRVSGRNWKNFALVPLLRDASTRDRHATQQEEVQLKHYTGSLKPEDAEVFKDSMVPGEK

activation of TRPV1-expressing cells by compound (TRPV1 [1]): did not activate
delay of response (TRPM8 [3]; TRPM8 cells): 15 s
delay of response (ANKTM1; ANKTM1 cells): 15 to 60 s
concentration required for ANKTM1 activation compared to TRPM8 (ANKTM1; comparison with TRPM8-expressing cells): Higher concentrations
activation of ANKTM1-expressing cells by compound (ANKTM1): activated
SMILES: O=C1NC(c2cccc([N+](=O)[O-])c2)=CCN1c1ccccc1O [Icilin]
activator of TRPM8 (TRPM8 [2]): potent activator

SMILES: CC1CCC(C(C)C)C(O)C1 (stereo not drawn) [Menthol, menthol]
activation of ANKTM1-expressing cells by compound (ANKTM1): failed to activate

activation of TRPM8-expressing cells by compound (TRPM8 [3]; rise in intracellular calcium, 340/380 ratio, FIG. 4B): did not activate
activation of ANKTM1-expressing cells by compound (ANKTM1): did not activate
SMILES: COc1cc(CNC(=O)CCCC/C=C/C(C)C)ccc1O [capsaicin]
activator of TRPV1 (TRPV1 [4]): potent activator

ANKTM1-containing cells with complete block of the cold response (ANKTM1; 1 μm ruthenium red, multiple experiments): 90%
SMILES: N.N.N.N.N.N.N.N.N.N.N.N.N.N.[Cl-].[Cl-].[Cl-].[Cl-].[Cl-].[Cl-].[O-2].[O-2].[Ru+3].[Ru+3].[Ru+4] [ruthenium red]
block of cold responses by ANKTM1 (ANKTM1; 5 μM ruthenium red, pre-incubation or present during cooling, ANKTM1-expressing CHO cells, not entirely recovered after ten minute washout): eliminates cold-evoked responses; also recorded: completely blocked
